Source: ChEMBL document CHEMBL4359836, “Synthesis and Biological Assessment of Pyrrolobenzoxazine Scaffold as a Potent Antioxidant” (J Med Chem, 2019)
pIC50: −log10 of the molar value. Calls of active or inactive are those of the source. No cut-off for these calls is given here.

Columns and labels:
[1] = Antioxidant activity in pH 7.4 phosphate buffer assessed as H2O2 scavenging activity by measuring H2O2 decomposition at 1.34 to 10.72 uM by spectrophotometric analysis; format: functional
[2] = Antioxidant activity in pH 7.4 potassium phosphate buffer assessed as CuCl2/ascorbic acid induced hydroxyl radical scavenging activity by measuring deoxyribose degradation product formation after 20 mins by thiobarbituric acid based absorbance analysis; format: functional
[3] = Pro-oxidant activity in pH 7.4 potassium phosphate buffer assessed as reduction in CuCl2/ascorbic acid induced hydroxyl radical scavenging activity at > 66 uM in presence of deoxyribose by measuring deoxyribose degradation product formation after 20 mins by thiobarbituric acid based absorbance analysis
[4] = Antioxidant activity in pH 7.4 potassium phosphate buffer assessed as CuCl2/ascorbic acid induced hydroxyl radical scavenging activity at 66 uM in presence of deoxyribose after 20 mins by thiobarbituric acid based absorbance analysis (reference value: 0.617 +/- 0.02%); format: functional
[5] = Antioxidant activity in pH 10 Tris-HCl buffer assessed as superoxide anion radical scavenging activity by measuring rate of epinephrine auto-oxidation by spectrophotometric analysis; format: functional
[6] = Antioxidant activity in pH 7.4 phosphate buffer assessed as DPPH radical scavenging activity at 4 to 100 uM after 30 mins by spectrophotometric analysis (reference value: 0.811 +/- 0.02%); format: functional
[7] = Antioxidant activity in pH 10 Tris-HCl buffer assessed as superoxide anion radical scavenging activity by measuring rate of epinephrine auto-oxidation at 10.72 uM by spectrophotometric analysis (reference value: 0.0186 +/- 0.004%); format: functional
[8] = Reducing power of the compound assessed as reducing Fe3+ power at 80 uM using K3Fe(CN)6 in pH 6.6 phosphate buffer after 20 mins by spectrophotometric analysis
[9] = Antioxidant activity in pH 7.4 potassium phosphate buffer assessed as CuCl2/ascorbic acid induced hydroxyl radical scavenging activity by measuring trolox equivalent antioxidant capacity by measuring IC50 Trolox/IC50 test compound ratio in presence of deoxyribose by thiobarbituric acid based absorbance analysis; format: functional
[10] = Antioxidant activity in pH 7.4 phosphate buffer assessed as DPPH radical scavenging activity after 30 mins by spectrophotometric analysis; format: functional
[11] = Pro-oxidant activity in pH 10 Tris-HCl buffer assessed as reduction in superoxide anion radical scavenging activity by measuring rate of epinephrine auto-oxidation at 10.72 uM by spectrophotometric analysis
[12] = Antioxidant activity in pH 10 Tris-HCl buffer assessed as superoxide anion radical scavenging activity by measuring rate of epinephrine auto-oxidation at 8.04 uM by spectrophotometric analysis (reference value: 0.0186 +/- 0.004%); format: functional

Row | pIC50 [2] | pIC50 [10] | Compound | Activity [1] | Activity [2] | Activity [3] | Activity [4] [%] | Activity [5] | Activity [6] [%] | Activity [7] [%] | Activity [8] | Ratio IC50 [9] | Activity [11] | Activity [12] [%]
1 | 5.08 |  | COC(=O)c1c(-c2cccc(Cl)c2)cn2c1c(=O)oc1ccccc12 | inactive | Dose-dependent effect | Active | 90 | Dose-dependent effect | < 14 | 83 | inactive | 1.18 |  | 
2 | 5.00 | 4.44 | Cc1c(C)c2c(c(C)c1O)CCC(C)(C(=O)O)O2 (stereo unspecified) [TROLOX] |  |  |  |  |  |  |  |  |  |  | 
3 | 5.32 |  | CCOC(=O)c1c(-c2cc(OC)c(OC)c(OC)c2)cn2c1c(=O)oc1ccccc12 | inactive | Dose-dependent effect | Active | 92 | Dose-dependent effect | < 14 |  | inactive | 2.06 | Active | 83
4 | 4.98 |  | CCOC(=O)c1c(-c2ccc(C)cc2)cn2c1c(=O)oc1ccccc12 | inactive | Dose-dependent effect | Active |  | Dose-dependent effect | < 14 |  | Dose-dependent effect | 0.95 |  | 
